Patent US20260317324A1, “BIFUNCTIONAL COMPOUNDS FOR DEGRADING BRAF VIA UBIQUITIN PROTEOSOME PATHWAY” (Nurix Therapeutics, Inc., priority 2023, published 2026)

What was measured:
Assay type in all cases: cell-based
BRAF V600E = biological target: T1, BRAF V600E (Homo sapiens, UniProt P15056, V600E); test: BRAF HiBiT degradation assay, C-terminal HiBiT-tagged BRAF V600E A375 cells (clone 1F10), Nano-Glo HiBiT Lytic assay; conditions: for Dmax: A-375
T1 construct: endogenous C-terminal HiBiT fusion tag on BRAF V600E allele; endogenous in cells; host or cells: A375 clone 1F10 (CRISPR-Cas9 knock-in of the HiBiT tag; parental A375 from ATCC)
Summary of the method: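 Luminescence from the Nano-Glo HiBiT lytic read-out gave % BRAF V600E remaining versus DMSO-treated tagged cells, with untagged A375 as background. Clone 1F10 cells (10,000/well, 24 h pre-culture) received compound at 1 μM–0.01 nM in half-log steps, 0.2% DMSO; curve fits gave DC50 at Y=50, plus observed Dmax.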

BRAF D594G = biological target: T2, BRAF D594G (Homo sapiens, UniProt P15056, D594G); test: BRAF HiBiT degradation assay, C-terminal HiBiT-tagged BRAF D594G overexpressed in HCT-116 BRAF−/− cells (clone 63), Nano-Glo HiBiT Lytic assay
T2 construct: Horizon Discovery (HCT-116 BRAF−/− cells); host or cells: HCT-116 BRAF−/− cells, clone 63, lentiviral transduction
Summary of the method: (§1)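 Degradation was read by Nano-Glo HiBiT lytic luminescence, normalised to DMSO-treated tagged cells with wildtype HCT-116 as background. Test cells were lentiviral clones of HCT-116 BRAF−/− carrying HiBiT-tagged mutants in RPMI/10% FBS, given compound at 0.01 nM–1 μM in duplicate. Outputs are the curve-fitted concentration giving 50% degradation and the maximal observed degradation.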

BRAF G466V = biological target: T3, BRAF G466V (Homo sapiens, UniProt P15056, G466V); test: BRAF HiBiT degradation assay, C-terminal HiBiT-tagged BRAF G466V overexpressed in HCT-116 BRAF−/− cells (clone 8), Nano-Glo HiBiT Lytic assay
T3 construct: Horizon Discovery (HCT-116 BRAF−/− cells); host or cells: HCT-116 BRAF−/− cells, clone 8, lentiviral transduction
Summary of the method: as §1

BRAF G469A = biological target: T4, BRAF G469A (Homo sapiens, UniProt P15056, G469A); test: BRAF HiBiT degradation assay, C-terminal HiBiT-tagged BRAF G469A overexpressed in HCT-116 BRAF−/− cells (clone 34), Nano-Glo HiBiT Lytic assay
T4 construct: Horizon Discovery (HCT-116 BRAF−/− cells); host or cells: HCT-116 BRAF−/− cells, clone 34, lentiviral transduction
Summary of the method: as §1

[1] = A375 (BRAF V600E, Class 1), DC50 at 50% degradation
[2] = A375 (BRAF V600E, Class 1), observed Dmax, % protein degraded relative to DMSO control
[3] = BRAF D594G (Class 3), HCT-116 BRAF−/− cells, DC50 at 50% degradation
[4] = BRAF D594G (Class 3), HCT-116 BRAF−/− cells, observed Dmax relative to DMSO control
[5] = BRAF G466V (Class 3), HCT-116 BRAF−/− cells, DC50 at 50% degradation
[6] = BRAF G466V (Class 3), HCT-116 BRAF−/− cells, observed Dmax relative to DMSO control
[7] = BRAF G469A (Class 2), HCT-116 BRAF−/− cells, DC50 at 50% degradation
[8] = BRAF G469A (Class 2), HCT-116 BRAF−/− cells, observed Dmax relative to DMSO control
[9] = A375 (BRAF V600E), DC50 at 50%: fitted conc. at Y=50
[10] = A375 (BRAF V600E), percentage protein degraded at maximal compound effect relative to DMSO
[11] = BRAF D594G, DC50 at 50%: fitted conc. at Y=50
[12] = HCT-116, BRAF D594G, percentage protein degraded at maximal compound effect relative to DMSO
[13] = BRAF G466V, DC50 at 50%: fitted conc. at Y=50
[14] = HCT-116, BRAF G466V, percentage protein degraded at maximal compound effect relative to DMSO
[15] = Class 2, BRAF G469A, DC50 at 50%: fitted conc. at Y=50
[16] = HCT-116, Class 2, BRAF G469A, percentage protein degraded at maximal compound effect relative to DMSO

T2 sequence (P15056 whole entry D594G): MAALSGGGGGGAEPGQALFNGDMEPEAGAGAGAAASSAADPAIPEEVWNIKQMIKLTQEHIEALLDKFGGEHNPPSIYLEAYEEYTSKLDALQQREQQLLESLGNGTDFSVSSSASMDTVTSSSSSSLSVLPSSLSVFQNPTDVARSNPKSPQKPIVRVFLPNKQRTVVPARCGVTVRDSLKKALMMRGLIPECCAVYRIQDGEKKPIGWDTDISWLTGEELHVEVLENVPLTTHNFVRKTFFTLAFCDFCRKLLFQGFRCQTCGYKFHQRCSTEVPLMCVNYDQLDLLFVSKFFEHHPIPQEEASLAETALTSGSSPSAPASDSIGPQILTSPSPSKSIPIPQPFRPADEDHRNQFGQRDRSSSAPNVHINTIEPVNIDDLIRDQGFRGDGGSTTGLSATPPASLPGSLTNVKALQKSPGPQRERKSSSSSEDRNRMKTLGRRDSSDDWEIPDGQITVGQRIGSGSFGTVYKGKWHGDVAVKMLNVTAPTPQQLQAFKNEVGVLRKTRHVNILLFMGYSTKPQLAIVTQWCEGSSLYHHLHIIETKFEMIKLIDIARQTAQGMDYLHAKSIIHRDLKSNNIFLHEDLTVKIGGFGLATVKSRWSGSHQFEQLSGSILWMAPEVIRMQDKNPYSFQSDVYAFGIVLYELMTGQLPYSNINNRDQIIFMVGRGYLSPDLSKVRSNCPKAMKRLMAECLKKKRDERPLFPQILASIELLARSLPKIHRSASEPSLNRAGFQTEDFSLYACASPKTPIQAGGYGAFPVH
T4 sequence (P15056 whole entry G469A): as the sequence (P15056 whole entry D594G) above, with G469A, G594D counted along it
T3 sequence (P15056 whole entry G466V): as the sequence (P15056 whole entry D594G) above, with G466V, G594D counted along it
T1 sequence (P15056 whole entry V600E, the tested form may be a part): as the sequence (P15056 whole entry D594G) above, with G594D, V600E counted along it

## CCN(C)S(=O)(=O)Nc1cc(F)cc(-c2cn(-c3ccc(N4CCN(CC5CCN(c6ccc(C7CCC(=O)NC7=O)cn6)CC5)CC4)cc3)nc2-c2ccncc2)c1F (racemic) [Compound 376, Rac-(3R)-3-(6-{4-[(4-{4-[4-(3-{[ethyl(methyl)sulfamoyl]amino}-2,5-difluorophenyl)-3-(pyridin-4-yl)-1H-pyrazol-1-yl]phenyl}piperazin-1-yl)methyl]piperidin-1-yl}pyridin-3-yl)piperidine-2,6-dione]
BRAF V600E; [1]
  DC50: < 10 nM
BRAF V600E; [2]
  Dmax: > 70%
BRAF D594G; [3]
  DC50: < 10 nM
BRAF D594G; [4]
  Dmax: > 70%
BRAF G466V; [5]
  DC50: < 10 nM
BRAF G466V; [6]
  Dmax: > 70%
BRAF G469A; [7]
  DC50: 10 to 50 nM
BRAF G469A; [8]
  Dmax: 30 to 70%

## CCCS(=O)(=O)Nc1cccc(-c2nc(C(C)(C)C)sc2-c2ccnc(Nc3ccc(N4CCN(C(=O)C5CCN(c6ccc(C7CCC(=O)NC7=O)cn6)CC5)CC4)c(F)c3)n2)c1F (racemic) [Compound 57, Rac-N-(3-{2-tert-butyl-5-[2-({4-[4-(1-{5-[(3R)-2,6-dioxopiperidin-3-yl]pyridin-2-yl}piperidine-4-carbonyl)piperazin-1-yl]-3-fluorophenyl}amino)pyrimidin-4-yl]-1,3-thiazol-4-yl}-2-fluorophenyl)propane-1-sulfonamide]
BRAF V600E; [9]
  DC50: < 10 nM
BRAF V600E; [10]
  Dmax: > 70%
BRAF D594G; [11]
  DC50: > 500 nM
BRAF D594G; [12]
  Dmax: 30 to 70%
BRAF G466V; [13]
  DC50: > 500 nM
BRAF G466V; [14]
  Dmax: 30 to 70%
BRAF G469A; [15]
  DC50: > 500 nM
BRAF G469A; [16]
  Dmax: 30 to 70%

## CCCS(=O)(=O)Nc1cccc(-c2nc(C(C)(C)C)sc2-c2ccnc(Nc3ccc(C4CCN(C(=O)[C@@H]5CCN(c6ccc(C7CCC(=O)NC7=O)cn6)C5)CC4)cc3)n2)c1F (mixture of isomers) [Compound 164, N-[3-(2-tert-butyl-5-{2-[(4-{1-[(3R)-1-{5-[(3RS)-2,6-dioxopiperidin-3-yl]pyridin-2-yl}pyrrolidine-3-carbonyl]piperidin-4-yl}phenyl)amino]pyrimidin-4-yl}-1,3-thiazol-4-yl)-2-fluorophenyl]propane-1-sulfonamide]
BRAF V600E; [9]
  DC50: < 10 nM
BRAF V600E; [10]
  Dmax: > 70%
BRAF D594G; [11]
  DC50: > 500 nM
BRAF D594G; [12]
  Dmax: 30 to 70%
BRAF G466V; [13]
  DC50: > 500 nM
BRAF G466V; [14]
  Dmax: 30 to 70%
BRAF G469A; [15]
  DC50: > 500 nM
BRAF G469A; [16]
  Dmax: < 30%

## CCCS(=O)(=O)Nc1cccc(-c2nc(C3CCN(C(=O)C4CCN(C(=O)C5CCN(c6ccc(C7CCC(=O)NC7=O)cn6)CC5)CC4)CC3)sc2-c2ccnc(NC(C)C)n2)c1F (racemic) [Compound 206, Rac-N-[3-(2-{1-[1-(1-{5-[(3R)-2,6-dioxopiperidin-3-yl]pyridin-2-yl}piperidine-4-carbonyl)piperidine-4-carbonyl]piperidin-4-yl}-5-{2-[(propan-2-yl)amino]pyrimidin-4-yl}-1,3-thiazol-4-yl)-2-fluorophenyl]propane-1-sulfonamide]
BRAF V600E; [9]
  DC50: < 10 nM
BRAF V600E; [10]
  Dmax: > 70%
BRAF D594G; [11]
  DC50: < 10 nM
BRAF D594G; [12]
  Dmax: 30 to 70%
BRAF G466V; [13]
  DC50: 10 to 50 nM
BRAF G466V; [14]
  Dmax: 30 to 70%
BRAF G469A; [15]
  DC50: > 500 nM
BRAF G469A; [16]
  Dmax: 30 to 70%

## CCCS(=O)(=O)Nc1cccc(-c2nc(C(C)(C)C)sc2-c2ccnc(NC3CC4(C3)CN(CC3CCN(c5ccc(C(=O)NC6CCC(=O)NC6=O)cc5)CC3)C4)n2)c1F (racemic) [Compound 170, Rac-4-[4-({6-[(4-{2-tert-butyl-4-[2-fluoro-3-(propane-1-sulfonamido)phenyl]-1,3-thiazol-5-yl}pyrimidin-2-yl)amino]-2-azaspiro[3.3]heptan-2-yl}methyl)piperidin-1-yl]-N-[(3R)-2,6-dioxopiperidin-3-yl]benzamide]
BRAF V600E; [9]
  DC50: 50 to 500 nM
BRAF V600E; [10]
  Dmax: 30 to 70%
BRAF D594G; [11]
  DC50: > 500 nM
BRAF D594G; [12]
  Dmax: < 30%
BRAF G466V; [13]
  DC50: > 500 nM
BRAF G466V; [14]
  Dmax: < 30%
BRAF G469A; [15]
  DC50: > 500 nM
BRAF G469A; [16]
  Dmax: < 30%

## CCCS(=O)(=O)Nc1cccc(-c2nc(C3CCN(C(=O)C4(C)CCN(C(=O)C5CCN(c6ccc(C7CCC(=O)NC7=O)cc6)CC5)CC4)CC3)sc2-c2ccnc(NC(C)C)n2)c1F (racemic) [Compound 179, Rac-N-[3-(2-{1-[1-(1-{4-[(3R)-2,6-dioxopiperidin-3-yl]phenyl}piperidine-4-carbonyl)-4-methylpiperidine-4-carbonyl]piperidin-4-yl}-5-{2-[(propan-2-yl)amino]pyrimidin-4-yl}-1,3-thiazol-4-yl)-2-fluorophenyl]propane-1-sulfonamide]
BRAF V600E; [9]
  DC50: < 10 nM
BRAF V600E; [10]
  Dmax: > 70%
BRAF D594G; [11]
  DC50: < 10 nM
BRAF D594G; [12]
  Dmax: 30 to 70%
BRAF G466V; [13]
  DC50: > 500 nM
BRAF G466V; [14]
  Dmax: 30 to 70%
BRAF G469A; [15]
  DC50: > 500 nM
BRAF G469A; [16]
  Dmax: < 30%

## O=C1CCC(c2ccc(N3CCC(CN4CCN(c5cc(F)c(-n6cc(-c7cc(Cl)cc(NS(=O)(=O)N8CCCC8)c7F)c(-c7ccncc7)n6)cc5F)CC4)CC3)nc2)C(=O)N1 (racemic) [Compound 354, Rac-N-{5-chloro-3-[1-(4-{4-[(1-{5-[(3R)-2,6-dioxopiperidin-3-yl]pyridin-2-yl}piperidin-4-yl)methyl]piperazin-1-yl}-2,5-difluorophenyl)-3-(pyridin-4-yl)-1H-pyrazol-4-yl]-2-fluorophenyl}pyrrolidine-1-sulfonamide]
BRAF V600E; [1]
  DC50: < 10 nM
BRAF V600E; [2]
  Dmax: > 70%
BRAF D594G; [3]
  DC50: < 10 nM
BRAF D594G; [4]
  Dmax: 30 to 70%
BRAF G466V; [5]
  DC50: < 10 nM
BRAF G466V; [6]
  Dmax: > 70%
BRAF G469A; [7]
  DC50: 10 to 50 nM
BRAF G469A; [8]
  Dmax: 30 to 70%

## CCCS(=O)(=O)Nc1cccc(-c2nc(C(C)(C)C)sc2-c2ccnc(Nc3ccc(C4CCN(C(=O)C5CN(c6ccc(C7CCC(=O)NC7=O)cn6)C5)CC4)cc3)n2)c1F (racemic) [Compound 159, Rac-N-(3-{2-tert-butyl-5-[2-({4-[1-(1-{5-[(3R)-2,6-dioxopiperidin-3-yl]pyridin-2-yl}azetidine-3-carbonyl)piperidin-4-yl]phenyl}amino)pyrimidin-4-yl]-1,3-thiazol-4-yl}-2-fluorophenyl)propane-1-sulfonamide]
BRAF V600E; [9]
  DC50: < 10 nM
BRAF V600E; [10]
  Dmax: > 70%
BRAF D594G; [11]
  DC50: > 500 nM
BRAF D594G; [12]
  Dmax: 30 to 70%
BRAF G466V; [13]
  DC50: > 500 nM
BRAF G466V; [14]
  Dmax: < 30%
BRAF G469A; [15]
  DC50: > 500 nM
BRAF G469A; [16]
  Dmax: < 30%

## CCCS(=O)(=O)Nc1cccc(-c2cn(-c3ccc(N4CCN(CC5CCN(c6ccc(C7CCC(=O)NC7=O)cn6)CC5)CC4)nc3)nc2-c2ccncc2)c1F (racemic) [Compound 3, Rac-N-{3-[1-(6-{4-[(1-{5-[(3R)-2,6-dioxopiperidin-3-yl]pyridin-2-yl}piperidin-4-yl)methyl]piperazin-1-yl}pyridin-3-yl)-3-(pyridin-4-yl)-1H-pyrazol-4-yl]-2-fluorophenyl}propane-1-sulfonamide]
BRAF V600E; [9]
  DC50: 50 to 500 nM
BRAF V600E; [10]
  Dmax: > 70%
BRAF D594G; [11]
  DC50: 10 to 50 nM
BRAF D594G; [12]
  Dmax: 30 to 70%
BRAF G466V; [13]
  DC50: 10 to 50 nM
BRAF G466V; [14]
  Dmax: 30 to 70%
BRAF G469A; [15]
  DC50: > 500 nM
BRAF G469A; [16]
  Dmax: 30 to 70%

## CCCS(=O)(=O)Nc1cccc(-c2nc(C3CCN(CC4CCN(C[C@H]5CC[C@H](Oc6ccc(C7CCC(=O)NC7=O)cc6)CC5)CC4)CC3)sc2-c2ccnc(N)n2)c1F (mixture of isomers) [Compound 225, N-{3-[5-(2-aminopyrimidin-4-yl)-2-{1-[(1-{[(1r,4r)-4-{4-[(3RS)-2,6-dioxopiperidin-3-yl]phenoxy}cyclohexyl]methyl}piperidin-4-yl)methyl]piperidin-4-yl}-1,3-thiazol-4-yl]-2-fluorophenyl}propane-1-sulfonamide]
BRAF V600E; [9]
  DC50: 10 to 50 nM
BRAF V600E; [10]
  Dmax: > 70%
BRAF D594G; [11]
  DC50: > 500 nM
BRAF D594G; [12]
  Dmax: 30 to 70%
BRAF G466V; [13]
  DC50: > 500 nM
BRAF G466V; [14]
  Dmax: 30 to 70%
BRAF G469A; [15]
  DC50: > 500 nM
BRAF G469A; [16]
  Dmax: < 30%
